Among the data in patent publication US20180371044A1, “PEPTIDOMIMETIC MACROCYCLES” (Aileron Therapeutics, Inc., priority 2015, published 2018) are EC50 values, retold here.

The target of the assay is T1, human GHRH receptor (hGHRHR) (Homo sapiens, UniProt Q02643).
T1 construct: expressed in transfected cells; host or cells: Human 293 cells
T1 sequence (Q02643 23-423): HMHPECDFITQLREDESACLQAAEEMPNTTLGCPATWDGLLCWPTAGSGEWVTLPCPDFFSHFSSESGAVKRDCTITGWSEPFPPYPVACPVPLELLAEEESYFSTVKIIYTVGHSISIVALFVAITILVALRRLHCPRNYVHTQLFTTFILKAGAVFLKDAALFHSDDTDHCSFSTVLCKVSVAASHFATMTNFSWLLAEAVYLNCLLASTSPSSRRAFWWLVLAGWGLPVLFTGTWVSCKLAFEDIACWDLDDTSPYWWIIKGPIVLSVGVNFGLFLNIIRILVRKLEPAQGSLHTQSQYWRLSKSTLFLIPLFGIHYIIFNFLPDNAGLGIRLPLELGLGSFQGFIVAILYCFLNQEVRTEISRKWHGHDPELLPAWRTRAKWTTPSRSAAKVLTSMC
As to the kind of experiment: GHRHR agonism measured by cAMP (HTRF) in human 293 cells expressing hGHRHR.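 Also: receptor expressed transiently or stably, cells stimulated in serum-free medium, EC50 from a non-linear dose-response fit, maximal response defined by reference GHRH stimulation.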 To be noted: 30 min at RT. Type of assay: cell-based.

Where a SMILES comes first, the peptide text is derived from it. Bridges are numbered along the chain shown (N, C = ends). [ ]: non-standard residue; d: D form. NiPrTyr = CC(C)N[C@@H](Cc1ccc(O)cc1)C(=O)O; NMeY = CN[C@@H](Cc1ccc(O)cc1)C(=O)O; R8 = C=CCCCCCC[C@@](C)(N)C(=O)O; Cit = NC(=O)NCCC[C@H](N)C(=O)O; S5 = C=CCCC[C@](C)(N)C(=O)O; Nle = CCCC[C@H](N)C(=O)O

For orientation: EC50 means the concentration needed to bring the measured effect to its halfway point. A low value points to greater potency.

`CCCC[C@H](NC(=O)[C@@H](NC(=O)[C@H](CC(=O)O)NC(=O)[C@]1(C)CCCC=CCCCCCC[C@@](C)(NC(=O)[C@H](CCC(N)=O)NC(=O)[C@H](C)NC(=O)[C@H](CC(C)C)NC(=O)[C@@H](NC(=O)[C@H](CCCCN)NC(=O)[C@H](CCCNC(=N)N)NC(=O)[C@H](Cc2ccc(O)cc2)NC(=O)[C@H](CO)NC(=O)[C@H](C)NC(=O)[C@@H](NC(=O)[C@H](Cc2ccccc2)NC(=O)[C@@H](NC(=O)[C@H](C)NC(=O)[C@H](CC(=O)O)NC(=O)[C@H](C)NC(=O)[C@H](Cc2ccc(O)cc2)NC)[C@@H](C)CC)[C@@H](C)O)C(C)C)C(=O)N[C@@H](CO)C(=O)N[C@@H](C)C(=O)N[C@@H](CCCNC(=N)N)C(=O)N[C@@H](CCCCN)C(=O)N[C@@H](C)C(=O)N[C@@H](CC(C)C)C(=O)N1)[C@@H](C)CC)C(=O)N[C@@H](CO)C(=O)N[C@@H](CCCNC(=N)N)C(N)=O` [SP-29] (H-[NMeY]ADAIFTASYRKVLAQ[R8]SARKAL[S5]DI[Nle]SR-NH2; staple 17-24): the EC50 was in the range of 1 to 10 nM.

Take `CCCC[C@H](NC(=O)[C@@H](NC(=O)[C@H](CC(=O)O)NC(=O)[C@H](CCC(N)=O)NC(=O)[C@H](CC(C)C)NC(=O)[C@H](C)NC(=O)[C@H](CCCCN)NC(=O)[C@H](CCCNC(=N)N)NC(=O)[C@H](C)NC(=O)[C@H](CO)NC(=O)[C@H](CC(C)C)NC(=O)[C@H](CCC(N)=O)NC(=O)[C@H](C)NC(=O)[C@H](CC(C)C)NC(=O)[C@@H](NC(=O)[C@H](CCCCN)NC(=O)[C@H](CCCNC(=N)N)NC(=O)[C@H](Cc1ccc(O)cc1)NC(=O)[C@H](CO)NC(=O)[C@H](C)NC(=O)[C@@H](NC(=O)[C@H](Cc1ccccc1)NC(=O)[C@@H](NC(=O)[C@H](C)NC(=O)[C@H](CC(=O)O)NC(=O)[C@H](C)NC(=O)[C@H](Cc1ccc(O)cc1)NC(C)C)[C@@H](C)CC)[C@@H](C)O)C(C)C)[C@@H](C)CC)C(=O)N[C@@H](CO)C(=O)N[C@@H](CCCNC(=N)N)C(N)=O` [SP-37] (H-[NiPrTyr]ADAIFTASYRKVLAQLSARKALQDI[Nle]SR-NH2): the half-maximal effective concentration (EC50) lay within 1 to 10 nM.

Consider `CCCC[C@H](NC(=O)[C@@H](NC(=O)[C@H](CC(=O)O)NC(=O)[C@H](CCC(N)=O)NC(=O)[C@H](CC(C)C)NC(=O)[C@H](C)NC(=O)[C@H](CCCCN)NC(=O)[C@H](CCCNC(=N)N)NC(=O)[C@H](C)NC(=O)[C@H](CO)NC(=O)[C@H](CC(C)C)NC(=O)[C@H](CCC(N)=O)NC(=O)[C@H](C)NC(=O)[C@H](CC(C)C)NC(=O)[C@@H](NC(=O)[C@H](CCCCN)NC(=O)[C@H](CCCNC(N)=O)NC(=O)[C@H](Cc1ccc(O)cc1)NC(=O)[C@H](CO)NC(=O)[C@H](C)NC(=O)[C@@H](NC(=O)[C@H](Cc1ccccc1)NC(=O)[C@@H](NC(=O)[C@H](C)NC(=O)[C@H](CC(=O)O)NC(=O)[C@H](C)NC(=O)[C@H](Cc1ccc(O)cc1)NC)[C@@H](C)CC)[C@@H](C)O)C(C)C)[C@@H](C)CC)C(=O)N[C@@H](CO)C(=O)N[C@@H](CCCNC(=N)N)C(N)=O` [SP-47] (H-[NMeY]ADAIFTASY[Cit]KVLAQLSARKALQDI[Nle]SR-NH2), for which the EC50 was at most 1 nM.

`CCCC[C@H](NC(=O)[C@@H](NC(=O)[C@H](CC(=O)O)NC(=O)[C@H](CCC(N)=O)NC(=O)[C@H](CC(C)C)NC(=O)[C@H](C)NC(=O)[C@H](CCCCN)NC(=O)[C@H](CCCNC(=N)N)NC(=O)[C@H](C)NC(=O)[C@H](CO)NC(=O)[C@H](CC(C)C)NC(=O)[C@H](CCC(N)=O)NC(=O)[C@H](C)NC(=O)[C@H](CC(C)C)NC(=O)[C@@H](NC(=O)[C@H](CCCCN)NC(=O)[C@H](CCCNC(=N)N)NC(=O)[C@H](Cc1ccc(O)cc1)NC(=O)[C@H](CO)NC(=O)[C@@H](NC(=O)[C@@H](NC(=O)[C@H](Cc1ccccc1)NC(=O)[C@@H](NC(=O)[C@H](C)NC(=O)[C@H](CC(=O)O)NC(=O)[C@H](C)NC(=O)[C@H](Cc1ccc(O)cc1)NC)[C@@H](C)CC)[C@@H](C)O)[C@@H](C)O)C(C)C)[C@@H](C)CC)C(=O)N[C@@H](CO)C(=O)N[C@@H](CCCNC(=N)N)C(N)=O` [SP-42] (H-[NMeY]ADAIFTTSYRKVLAQLSARKALQDI[Nle]SR-NH2) registered an EC50 of 1 to 10 nM.

Compound `CCCC[C@H](NC(=O)[C@@H](NC(=O)[C@H](CC(=O)O)NC(=O)[C@H](CCC(N)=O)NC(=O)[C@H](CC(C)C)NC(=O)[C@H](C)NC(=O)[C@H](CCCCN)NC(=O)[C@H](CCCNC(=N)N)NC(=O)[C@]1(C)CCCC=CCCCCCC[C@@](C)(NC(=O)[C@H](CCCNC(=N)N)NC(=O)[C@H](Cc2ccc(O)cc2)NC(=O)[C@H](CO)NC(=O)[C@H](C)NC(=O)[C@@H](NC(=O)[C@H](Cc2ccccc2)NC(=O)[C@@H](NC(=O)[C@H](C)NC(=O)[C@H](CC(=O)O)NC(=O)[C@H](C)NC(=O)[C@H](Cc2ccc(O)cc2)NC)[C@@H](C)CC)[C@@H](C)O)C(=O)N[C@@H](C(C)C)C(=O)N[C@@H](CC(C)C)C(=O)N[C@@H](C)C(=O)N[C@@H](CCC(N)=O)C(=O)N[C@@H](CC(C)C)C(=O)N[C@@H](CO)C(=O)N1)[C@@H](C)CC)C(=O)N[C@@H](CO)C(N)=O` [SP-60] (H-[NMeY]ADAIFTASYR[R8]VLAQLS[S5]RKALQDI[Nle]S-NH2; staple 12-19) came in with an EC50 of 25 to 50 nM.

With `CCCC[C@H](NC(=O)[C@@H](NC(=O)[C@H](CC(=O)O)NC(=O)[C@H](CCC(N)=O)NC(=O)[C@H](CC(C)C)NC(=O)[C@]1(C)CCCC=CCCC[C@](C)(NC(=O)[C@H](CC(C)C)NC(=O)[C@H](CCC(N)=O)NC(=O)[C@H](C)NC(=O)[C@H](CC(C)C)NC(=O)[C@@H](NC(=O)[C@H](CCCCN)NC(=O)[C@H](CCCNC(=N)N)NC(=O)[C@H](Cc2ccc(O)cc2)NC(=O)[C@H](CO)NC(=O)[C@H](C)NC(=O)[C@@H](NC(=O)[C@H](Cc2ccccc2)NC(=O)[C@@H](NC(=O)[C@H](C)NC(=O)[C@H](CC(=O)O)NC(=O)[C@H](C)NC(=O)[C@H](Cc2ccc(O)cc2)NC)[C@@H](C)CC)[C@@H](C)O)C(C)C)C(=O)N[C@@H](C)C(=O)N[C@@H](CCCNC(=N)N)C(=O)N[C@@H](CCCCN)C(=O)N1)[C@@H](C)CC)C(=O)N[C@@H](CO)C(=O)N[C@@H](CCCNC(=N)N)C(N)=O` [SP-16] (H-[NMeY]ADAIFTASYRKVLAQL[S5]ARK[S5]LQDI[Nle]SR-NH2; staple 18-22), the EC50 lay in the range of 1 to 10 nM.
